In ChEMBL document CHEMBL5257079, “Discovery of FXR/PPARγ dual partial agonist” (Bioorg Med Chem, 2023):
Activity calls are given as the source filed them. The rule behind the calls is not given here.

Columns and labels:
[1] = target: T1, Peroxisome proliferator-activated receptor delta (Homo sapiens) (UniProt Q03181); assay: Activation of PPARdelta (unknown origin) at 10 uM
T1 sequence (whole entry): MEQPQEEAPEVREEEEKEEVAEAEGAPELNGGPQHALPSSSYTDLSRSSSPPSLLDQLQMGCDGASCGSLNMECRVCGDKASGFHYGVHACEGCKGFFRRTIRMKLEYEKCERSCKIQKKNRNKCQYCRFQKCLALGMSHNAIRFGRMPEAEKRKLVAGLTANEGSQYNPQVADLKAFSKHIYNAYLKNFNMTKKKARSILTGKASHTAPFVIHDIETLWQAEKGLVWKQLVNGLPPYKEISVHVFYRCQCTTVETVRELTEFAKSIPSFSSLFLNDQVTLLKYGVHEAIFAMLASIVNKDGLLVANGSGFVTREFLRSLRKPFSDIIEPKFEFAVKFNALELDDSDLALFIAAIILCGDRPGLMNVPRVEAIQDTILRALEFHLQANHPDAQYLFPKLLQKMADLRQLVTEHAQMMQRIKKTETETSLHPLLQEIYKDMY

[2] = target: T2, G-protein coupled bile acid receptor 1 (Homo sapiens) (UniProt Q8TDU6); assay: Activation of TGR5 (unknown origin) at 10 uM
T2 sequence (whole entry): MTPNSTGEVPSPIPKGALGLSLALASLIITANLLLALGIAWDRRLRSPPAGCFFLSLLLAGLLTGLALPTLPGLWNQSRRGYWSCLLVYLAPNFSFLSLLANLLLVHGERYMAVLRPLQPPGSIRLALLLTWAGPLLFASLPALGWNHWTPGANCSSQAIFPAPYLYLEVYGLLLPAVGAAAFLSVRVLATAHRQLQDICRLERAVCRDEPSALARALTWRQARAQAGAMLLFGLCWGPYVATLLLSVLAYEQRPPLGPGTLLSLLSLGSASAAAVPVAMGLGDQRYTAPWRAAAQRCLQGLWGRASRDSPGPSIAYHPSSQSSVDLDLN

[3] = Metabolic stability in mouse liver microsomes assessed as parent compound remaining after 30 mins; assay type: ADME, Microsome; conditions: read-out: Stability
[4] = target: T3, Peroxisome proliferator-activated receptor gamma (Mus musculus) (UniProt P37238); assay: Inhibition of TNFalpha stimulated PPARgamma phosphorylation at Ser273 residue in mouse 3T3-L1 cells preincubated for 60 mins followed by TNFalpha addition for 90 mins by Western blot analysis; assay type: cell-based; conditions: time 150.0 min
T3 sequence (whole entry): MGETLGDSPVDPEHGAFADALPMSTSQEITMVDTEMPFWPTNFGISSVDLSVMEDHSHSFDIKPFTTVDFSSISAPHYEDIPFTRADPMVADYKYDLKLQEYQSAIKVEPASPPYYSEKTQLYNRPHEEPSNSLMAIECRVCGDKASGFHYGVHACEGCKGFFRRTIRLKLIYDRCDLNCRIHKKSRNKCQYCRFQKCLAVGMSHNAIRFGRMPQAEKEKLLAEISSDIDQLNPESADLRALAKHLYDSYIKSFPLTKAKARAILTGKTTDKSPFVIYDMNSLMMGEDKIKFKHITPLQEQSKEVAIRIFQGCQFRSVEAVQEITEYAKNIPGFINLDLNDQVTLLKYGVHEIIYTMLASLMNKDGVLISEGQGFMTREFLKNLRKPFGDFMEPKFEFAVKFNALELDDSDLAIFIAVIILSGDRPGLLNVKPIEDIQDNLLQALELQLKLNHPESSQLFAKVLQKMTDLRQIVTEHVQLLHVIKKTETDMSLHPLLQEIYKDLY

Bile acid receptor [5] = target: T4, Bile acid receptor (Homo sapiens, UniProt Q96RI1); assay: Partial agonist activity at FXR-LBD-GST (unknown origin) by TR-FRET assay; conditions: read-out: EC50
T4 sequence (Q96RI1 whole entry): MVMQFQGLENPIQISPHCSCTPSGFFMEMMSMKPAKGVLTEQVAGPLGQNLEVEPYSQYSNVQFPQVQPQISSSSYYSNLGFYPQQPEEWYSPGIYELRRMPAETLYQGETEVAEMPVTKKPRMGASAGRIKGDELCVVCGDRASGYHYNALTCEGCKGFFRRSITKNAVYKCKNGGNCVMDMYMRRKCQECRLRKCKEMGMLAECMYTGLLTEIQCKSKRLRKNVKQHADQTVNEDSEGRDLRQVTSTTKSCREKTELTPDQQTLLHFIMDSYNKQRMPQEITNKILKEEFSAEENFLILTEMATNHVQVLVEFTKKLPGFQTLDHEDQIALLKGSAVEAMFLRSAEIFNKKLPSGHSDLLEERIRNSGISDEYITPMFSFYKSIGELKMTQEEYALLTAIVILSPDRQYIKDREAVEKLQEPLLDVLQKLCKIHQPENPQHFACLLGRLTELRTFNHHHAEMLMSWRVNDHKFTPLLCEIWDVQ

[6] = target: T5, Bile acid receptor (Homo sapiens) (UniProt Q96RI1); assay: Partial agonist activity at FXR in human Huh-7 cells assessed as reduction in CDCA-induced OSTalpha gene expression at 10 uM by RT-PCR analysis; assay type: cell-based; conditions: filed as partial agonist
T5 sequence (whole entry): T4 sequence (Q96RI1 whole entry)

[7] = target: T5, Bile acid receptor (Homo sapiens); assay: Antagonist activity at FXR-LBD-GST (unknown origin) in presence of GW4064 relative to control; set-up: scale not given: the % may be the effect or the level left
Bile acid receptor [8] = target: T4, Bile acid receptor; assay: Partial agonist activity at human FXR expressed in Huh-7 cells in presence of CDCA by luciferase reporter gene assay; assay type: cell-based
[9] = target: T6, Vitamin D3 receptor (Homo sapiens) (UniProt P11473); assay: Activation of VDR (unknown origin) at 10 uM
T6 sequence (whole entry): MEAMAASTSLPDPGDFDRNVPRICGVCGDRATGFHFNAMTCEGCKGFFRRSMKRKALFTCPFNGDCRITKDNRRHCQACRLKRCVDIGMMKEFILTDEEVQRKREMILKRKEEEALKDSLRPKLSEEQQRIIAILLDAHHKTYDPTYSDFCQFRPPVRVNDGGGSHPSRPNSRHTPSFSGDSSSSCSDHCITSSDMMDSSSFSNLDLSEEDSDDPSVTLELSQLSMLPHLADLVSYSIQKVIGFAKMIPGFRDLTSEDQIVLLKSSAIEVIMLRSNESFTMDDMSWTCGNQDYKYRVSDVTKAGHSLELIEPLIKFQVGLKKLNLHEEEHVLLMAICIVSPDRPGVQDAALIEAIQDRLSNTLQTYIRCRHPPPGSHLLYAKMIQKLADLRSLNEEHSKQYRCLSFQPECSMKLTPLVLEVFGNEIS

Bile acid receptor [10] = target: T4, Bile acid receptor; assay: Antagonist activity at FXR-LBD-GST (unknown origin) in presence of GW4064
[11] = target: T5, Bile acid receptor (Homo sapiens); assay: Activation of FXR (unknown origin) at 10 uM; conditions: filed as activator

Activity [1]: inactive
Activity [2]: inactive
remaining at 0.5 h [3]: 69.5%
inhibition [4]: Dose-Dependent Effect
EC50 (Bile acid receptor [5]): 250 nM
Activity [6]: Active
Activity [7]: 30%
EC50 (Bile acid receptor [8]): 1900 nM
Activity [9]: inactive
IC50 (Bile acid receptor [10]): 20700 nM
Activity [11]: Active
Compound: CC(C)(C)c1ccc(-n2cnc3c(NC(=O)Cc4ccc(C(=O)O)cc4)cccc32)cc1
